# Data: PubChem BioAssay (NCI)
# Where “and” joins values, the source holds several entries; their conditions need not be identical. Equal entries are not always repeated.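 96-well plates; 48 h exposure; 5 concentrations. Endpoints by linear interpolation between flanking doses. Not reached: highest tested concentration assigned. GI50 is the concentration that inhibits growth by half. At the TGI there is no net growth.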
# What was measured:
# Test in all cases: NCI tumour cell line growth inhibition, 48 h
# 786-0 renal = test system: 786-0 renal
# A498 renal = test system: A498 renal
# A549 NSCLC = test system: A549 NSCLC
# ACHN renal = test system: ACHN renal
# BT-549 breast = test system: BT-549 breast
# CAKI-1 renal = test system: CAKI-1 renal
# CCRF-CEM leukemia = test system: CCRF-CEM leukemia
# COLO 205 colon = test system: COLO 205 colon
# DU-145 prostate = test system: DU-145 prostate
# EKVX NSCLC = test system: EKVX NSCLC
# HCC-2998 colon = test system: HCC-2998 colon
# HCT-116 colon = test system: HCT-116 colon
# HCT-15 colon = test system: HCT-15 colon
# HL-60(TB) leukemia = test system: HL-60(TB) leukemia
# HOP-62 NSCLC = test system: HOP-62 NSCLC
# HOP-92 NSCLC = test system: HOP-92 NSCLC
# HS 578T breast = test system: HS 578T breast
# HT29 colon = test system: HT29 colon
# IGROV1 ovarian = test system: IGROV1 ovarian
# K-562 leukemia = test system: K-562 leukemia
# KM12 colon = test system: KM12 colon
# LOX IMVI melanoma = test system: LOX IMVI melanoma
# M14 melanoma = test system: M14 melanoma
# MALME-3M melanoma = test system: MALME-3M melanoma
# MCF7 breast = test system: MCF7 breast
# MDA-MB-231 breast = test system: MDA-MB-231 breast
# MDA-MB-435 = test system: MDA-MB-435
# MOLT-4 leukemia = test system: MOLT-4 leukemia
# NCI-H226 lung = test system: NCI-H226 lung
# NCI-H23 lung = test system: NCI-H23 lung
# NCI-H460 lung = test system: NCI-H460 lung
# NCI-H522 lung = test system: NCI-H522 lung
# NCI/ADR-RES ovarian = test system: NCI/ADR-RES ovarian
# OVCAR-3 ovarian = test system: OVCAR-3 ovarian
# OVCAR-4 ovarian = test system: OVCAR-4 ovarian
# OVCAR-5 ovarian = test system: OVCAR-5 ovarian
# OVCAR-8 ovarian = test system: OVCAR-8 ovarian
# PC-3 prostate = test system: PC-3 prostate
# RPMI-8226 leukemia = test system: RPMI-8226 leukemia
# RXF 393 renal = test system: RXF 393 renal
# SF-268 CNS = test system: SF-268 CNS
# SF-295 CNS = test system: SF-295 CNS
# SF-539 CNS = test system: SF-539 CNS
# SK-MEL-2 melanoma = test system: SK-MEL-2 melanoma
# SK-MEL-28 melanoma = test system: SK-MEL-28 melanoma
# SK-MEL-5 melanoma = test system: SK-MEL-5 melanoma
# SK-OV-3 ovarian = test system: SK-OV-3 ovarian
# SN12C renal = test system: SN12C renal
# SNB-19 CNS = test system: SNB-19 CNS
# SNB-75 CNS = test system: SNB-75 CNS
# SR leukemia = test system: SR leukemia
# SW-620 colon = test system: SW-620 colon
# TK-10 renal = test system: TK-10 renal
# U251 CNS = test system: U251 CNS
# UACC-257 melanoma = test system: UACC-257 melanoma
# UACC-62 melanoma = test system: UACC-62 melanoma
# UO-31 renal = test system: UO-31 renal
# T-47D breast = test system: T-47D breast
structure (smiles),measurement,setting,value
COC(=O)Nc1nc2ccc(C(=O)c3ccccc3)cc2[nH]1,GI50,786-0 renal,593 nM and 720 nM
same,TGI,786-0 renal,> 100000 nM
same,GI50,A498 renal,314 nM and 325 nM
same,TGI,A498 renal,8900 nM and 3260 nM
same,GI50,A549 NSCLC,605 nM and 534 nM
same,TGI,A549 NSCLC,> 100000 nM
same,GI50,ACHN renal,2230 nM and 1330 nM
same,TGI,ACHN renal,> 100000 nM
same,GI50,BT-549 breast,1200 nM and 3270 nM
same,TGI,BT-549 breast,> 100000 nM and 52100 nM
same,GI50,CAKI-1 renal,469 nM and 347 nM
same,TGI,CAKI-1 renal,> 100000 nM
same,GI50,CCRF-CEM leukemia,398 nM and 458 nM
same,TGI,CCRF-CEM leukemia,> 100000 nM
same,GI50,COLO 205 colon,331 nM and 274 nM
same,TGI,COLO 205 colon,1120 nM and 3740 nM
same,GI50,DU-145 prostate,1060 nM and 259 nM
same,TGI,DU-145 prostate,22600 nM and 3000 nM
same,TGI,EKVX NSCLC,> 100000 nM
same,GI50,HCC-2998 colon,2310 nM and 2130 nM
same,TGI,HCC-2998 colon,> 100000 nM
same,GI50,HCT-116 colon,470 nM and 353 nM
same,TGI,HCT-116 colon,50800 nM and > 36200 nM
same,GI50,HCT-15 colon,451 nM and 210 nM
same,TGI,HCT-15 colon,> 100000 nM
same,GI50,HL-60(TB) leukemia,255 nM and 233 nM
same,TGI,HL-60(TB) leukemia,636 nM
same,GI50,HOP-62 NSCLC,610 nM and 3190 nM
same,TGI,HOP-62 NSCLC,> 100000 nM
same,TGI,HOP-92 NSCLC,> 85900 nM
same,GI50,HS 578T breast,518 nM and 200 nM
same,TGI,HS 578T breast,> 100000 nM
same,GI50,HT29 colon,363 nM and 260 nM
same,TGI,HT29 colon,8210 nM and 11200 nM
same,GI50,IGROV1 ovarian,1010 nM and 565 nM
same,TGI,IGROV1 ovarian,> 100000 nM and 52900 nM
same,GI50,K-562 leukemia,391 nM and 142 nM
same,TGI,K-562 leukemia,> 56300 nM
same,GI50,KM12 colon,402 nM and 130 nM
same,GI50,LOX IMVI melanoma,625 nM and 870 nM
same,TGI,LOX IMVI melanoma,> 100000 nM
same,GI50,M14 melanoma,427 nM and 257 nM
same,TGI,M14 melanoma,6600 nM
same,GI50,MALME-3M melanoma,559 nM and 201 nM
same,TGI,MALME-3M melanoma,> 100000 nM
same,GI50,MCF7 breast,318 nM and 204 nM
same,TGI,MCF7 breast,> 100000 nM
same,GI50,MDA-MB-231 breast,1050 nM and 1250 nM
same,TGI,MDA-MB-231 breast,> 100000 nM
same,GI50,MDA-MB-435,178 nM and 34.3 nM
same,TGI,MDA-MB-435,485 nM and 211 nM
same,GI50,MOLT-4 leukemia,536 nM and 393 nM
same,TGI,MOLT-4 leukemia,> 45800 nM
same,GI50,NCI-H226 lung,1050 nM and 441 nM
same,TGI,NCI-H226 lung,28900 nM and > 100000 nM
same,GI50,NCI-H23 lung,747 nM and 1130 nM
same,TGI,NCI-H23 lung,> 100000 nM
same,GI50,NCI-H460 lung,397 nM and 330 nM
same,GI50,NCI-H522 lung,317 nM and 323 nM
same,TGI,NCI-H522 lung,2360 nM
same,GI50,NCI/ADR-RES ovarian,346 nM and 357 nM
same,GI50,OVCAR-3 ovarian,324 nM and 172 nM
same,TGI,OVCAR-3 ovarian,864 nM and 415 nM
same,GI50,OVCAR-4 ovarian,3880 nM and 3130 nM
same,TGI,OVCAR-4 ovarian,> 100000 nM
same,GI50,OVCAR-5 ovarian,5380 nM and 2500 nM
same,TGI,OVCAR-5 ovarian,> 100000 nM
same,GI50,OVCAR-8 ovarian,757 nM and 486 nM
same,TGI,OVCAR-8 ovarian,> 100000 nM
same,GI50,PC-3 prostate,405 nM and 250 nM
same,TGI,PC-3 prostate,> 100000 nM and 19100 nM
same,GI50,RPMI-8226 leukemia,903 nM and 297 nM
same,TGI,RPMI-8226 leukemia,> 100000 nM and 15000 nM
same,GI50,RXF 393 renal,368 nM
same,TGI,RXF 393 renal,2190 nM
same,GI50,SF-268 CNS,1760 nM and 535 nM
same,TGI,SF-268 CNS,> 100000 nM
same,GI50,SF-295 CNS,400 nM and 255 nM
same,TGI,SF-295 CNS,> 60500 nM
same,GI50,SF-539 CNS,577 nM and 238 nM
same,GI50,SK-MEL-2 melanoma,473 nM and 583 nM
same,TGI,SK-MEL-2 melanoma,22800 nM and > 100000 nM
same,GI50,SK-MEL-28 melanoma,651 nM and 464 nM
same,TGI,SK-MEL-28 melanoma,> 100000 nM
same,GI50,SK-MEL-5 melanoma,350 nM and 215 nM
same,TGI,SK-MEL-5 melanoma,14000 nM and 1470 nM
same,GI50,SK-OV-3 ovarian,435 nM and 467 nM
same,GI50,SN12C renal,1090 nM and 620 nM
same,TGI,SN12C renal,> 100000 nM
same,GI50,SNB-19 CNS,587 nM and 471 nM
same,TGI,SNB-19 CNS,> 100000 nM
same,GI50,SNB-75 CNS,256 nM and 86.6 nM
same,TGI,SNB-75 CNS,> 100000 nM and 17000 nM
same,GI50,SR leukemia,168 nM and 44.4 nM
same,TGI,SR leukemia,28100 nM and > 100000 nM
same,GI50,SW-620 colon,410 nM and 259 nM
same,TGI,SW-620 colon,> 100000 nM
same,TGI,TK-10 renal,> 100000 nM
same,GI50,U251 CNS,500 nM and 398 nM
same,TGI,U251 CNS,> 100000 nM
same,GI50,UACC-257 melanoma,38000 nM
same,TGI,UACC-257 melanoma,> 100000 nM
same,GI50,UACC-62 melanoma,476 nM and 463 nM
same,TGI,UACC-62 melanoma,> 100000 nM
same,TGI,UO-31 renal,> 100000 nM
Cc1cc2n[n+]3[n-]cc(-c4ccccc4)n3c2cc1[N+](=O)[O-],TGI,786-0 renal,> 100000 nM
same,TGI,A498 renal,> 100000 nM
same,TGI,A549 NSCLC,> 100000 nM
same,TGI,ACHN renal,> 100000 nM
same,TGI,BT-549 breast,> 100000 nM
same,TGI,CAKI-1 renal,> 100000 nM
same,TGI,CCRF-CEM leukemia,> 100000 nM
same,TGI,COLO 205 colon,> 100000 nM
same,TGI,DU-145 prostate,> 100000 nM
same,TGI,EKVX NSCLC,> 100000 nM
same,TGI,HCT-116 colon,> 100000 nM
same,TGI,HCT-15 colon,> 100000 nM
same,TGI,HL-60(TB) leukemia,> 100000 nM
same,TGI,HOP-62 NSCLC,> 100000 nM
same,TGI,HOP-92 NSCLC,> 100000 nM
same,TGI,HS 578T breast,> 100000 nM
same,TGI,IGROV1 ovarian,> 100000 nM
same,TGI,K-562 leukemia,> 100000 nM
same,TGI,KM12 colon,> 100000 nM
same,TGI,LOX IMVI melanoma,> 100000 nM
same,TGI,MCF7 breast,> 100000 nM
same,TGI,MDA-MB-231 breast,> 100000 nM
same,TGI,MDA-MB-435,> 100000 nM
same,TGI,MOLT-4 leukemia,> 100000 nM
same,TGI,NCI-H460 lung,> 100000 nM
same,TGI,NCI-H522 lung,> 100000 nM
same,TGI,OVCAR-3 ovarian,> 100000 nM
same,TGI,OVCAR-4 ovarian,> 100000 nM
same,TGI,OVCAR-5 ovarian,> 100000 nM
same,TGI,PC-3 prostate,> 100000 nM
same,TGI,RPMI-8226 leukemia,> 100000 nM
same,TGI,RXF 393 renal,> 100000 nM
same,TGI,SF-295 CNS,> 100000 nM
same,TGI,SF-539 CNS,> 100000 nM
same,TGI,SK-MEL-2 melanoma,> 100000 nM
same,TGI,SK-MEL-28 melanoma,> 100000 nM
same,TGI,SK-MEL-5 melanoma,> 100000 nM
same,TGI,SK-OV-3 ovarian,> 100000 nM
same,TGI,SNB-19 CNS,> 100000 nM
same,TGI,SNB-75 CNS,> 100000 nM
same,TGI,SR leukemia,> 100000 nM
same,TGI,SW-620 colon,> 100000 nM
same,TGI,T-47D breast,> 100000 nM
same,TGI,TK-10 renal,> 100000 nM
same,TGI,U251 CNS,> 100000 nM
same,TGI,UACC-257 melanoma,> 100000 nM
same,TGI,UACC-62 melanoma,> 100000 nM
same,TGI,UO-31 renal,> 100000 nM
